From patent US9676691B2, “Method for producing indanone derivatives” (SYMRISE AG, priority 2011, dated 2017)

Columns and labels:
[1] = Solubility in cosmetic oils; format: physicochemical; details: in contrast to the target product
[2] = Examination of the crystallisation in emulsion; format: physicochemical; details: with respect to the entire mass of the cosmetic formulation (0.025% by weight)
From the text: According to the indications in the following Table 1, two cosmetic formulations were produced as emulsions [E(I) and E (II)]. The product from example 1a contained pure 2-benzylidene-3,3-dimethyl-5,6-dimethoxy-1-indanone and was used in the emulsion E(I). For the emulsion E(II), 2-benzylidene-3,3-dimethyl-5,6-dimethoxy-1-indanone from example 1a was used, but it was contaminated with benzyl-3,3-dimethyl-5,6-dimethoxy-1-indanone in such a manner that a 5% by weight contamination was present, with respect to the total mass of the contaminated product.
The emulsions were covered and left to stand at ambient temperature for 3 days. Subsequently, the emulsions were examined under a microscope. Emulsion E(I) had no crystals. In emulsion E(II), crystal seeds having a size of from 4 to 7 μm were able to be observed.

SMILES: COc1cc2c(cc1OC)C(C)(C)C(Cc1ccccc1)C2=O (centres unmarked) [2-benzyl-3,3-dimethyl-5,6-dimethoxy-1-indanone]
- solubility in cosmetic oils [1]: cannot be readily dissolved in cosmetic oils
- proportion of by-product that initiates the formation of crystallisation seeds in the cosmetic formulation [2]: 250 ppm
